Assay results: patent publication US8674109B2, “Pesticidal compositions” (Dow AgroSciences, LLC., priority 2009, dated 2014)

What was measured:
Format in all cases: in vivo
[1] = test system: green peach aphid (Myzus persicae); experiment: Insecticidal test for green peach aphid in foliar spray assay on cabbage seedlings
Experimental: Insecticidal Test for Green Peach Aphid (Myzus persicae) in Foliar Spray Assay
Cabbage seedlings grown in 3-inch pots, with 2-3 small (3-5 cm) true leaves, were used as test substrate. The seedlings were infested with 20-50 green peach aphids (wingless adult and nymph) one day prior to chemical application. Four pots with individual seedlings were used for each treatment. Compounds (2 mg) were dissolved in 2 mL of acetone/methanol (1:1) solvent, forming stock solutions of 1000 ppm. The stock solutions were diluted 5× with 0.025% Tween 20 in H2O to obtain the solution at 200 ppm. A hand-held Devilbiss sprayer was used for spraying a solution to both sides of cabbage leaves until runoff. Reference plants (solvent check) were sprayed with the diluent only. Treated plants were held in a holding room for three days at approximately 25° C. and 40% relative humidity (RH) prior to grading. Evaluation was conducted by counting the number of live aphids per plant under a microscope. Insecticidal activity was measured by using Abbott's correction formula are presented in Table 2: Corrected % Control=100*(X−Y)/X
where • X=No. of live aphids on solvent check plants • Y=No. of live aphids on treated plants

[2] = test system: beet armyworm (BAW; Spodoptera exigua: Lepidoptera); experiment: Insecticidal test for beet armyworm, 128-well diet tray assay
Experimental: Insecticidal Test for Beet Armyworm (Spodoptera exigua)
(§1) Bioassays on beet armyworm (BAW; Spodoptera exigua: Lepidoptera) were conducted using a 128-well diet tray assay. Three to five second instar BAW larvae were placed in each well (3 mL) of the diet tray that had been previously filled with 1 mL of artificial diet to which 50 μg/cm^2 of the test compound (dissolved in 50 μL of 90:10 acetone-water mixture) had been applied (to each of eight wells) and then allowed to dry. Trays were covered with a clear self-adhesive cover, and held at 25° C., 14:10 light-dark for six days. Percent mortality was recorded for the larvae in each well; activity in the eight wells was then averaged.

[3] = test system: corn earworm (CEW; Helicoverpa zea: Lepidoptera); experiment: Insecticidal test for corn earworm, 128-well diet tray assay
Experimental: Insecticidal Test for Corn Earworm (Helicoverpa zea)
as §1, with “corn earworm (CEW; Helicoverpa zea:” for “beet armyworm (BAW; Spodoptera exigua:”, “CEW” for “BAW”

SMILES | % Mortality GPA 200 ppm [1] | % Mortality BAW 50 μg/cm^2 [2] | % Mortality CEW 50 μg/cm^2 [3]
O=C(Nc1ccc(-c2ncn(-c3ccc(OC(F)(F)F)cc3)n2)cc1)OC(c1ccccc1)C1CC1 (stereo not drawn) [Compound 88] | B (Less than 80) | A (50-100) | A (50-100)
CC(OC(=O)Nc1ccc(-c2ncn(-c3ccc(OC(F)(F)F)cc3)n2)cc1)c1cccc(C(F)(F)F)c1 (stereo not drawn) [Compound 68] | B (Less than 80) | A (50-100) | A (50-100)
CC(C)OC(=O)Nc1ccc(-c2ncn(-c3ccc(OC(F)(F)C(F)(F)F)cc3)n2)cc1 [Compound 10] | B (Less than 80) | A (50-100) | B (Less than 50)
CC(OC(=O)Nc1ccc(-c2ncn(-c3ccc(OC(F)(F)F)cc3)n2)cc1)c1ccc(C(F)(F)F)cc1 (stereo not drawn) [Compound 42] | B (Less than 80) | A (50-100) | A (50-100)
Cc1cccc(C(C)OC(=O)Nc2ccc(-c3ncn(-c4ccc(OC(F)(F)F)cc4)n3)cc2)c1 (stereo not drawn) [Compound 92] | B (Less than 80) | A (50-100) | A (50-100)
CC(OC(=O)Nc1ccc(-c2ncn(-c3ccc(OC(F)(F)F)cc3)n2)cc1)c1ccc(C(F)(F)F)[n+]([O-])c1 (stereo not drawn) [Compound 51] | B (Less than 80) | A (50-100) | A (50-100)
CC(C)(C)OC(=O)Nc1ccc(-c2ncn(-c3ccc(OC(F)(F)C(F)(F)F)cc3)n2)cc1 [Compound 1, {4-[1-(4-pentafluoroethyloxyphenyl)-1H-[1,2,4]triazol-3-yl]-phenyl}-carbamic acid tert-butyl ester] | B (Less than 80) | A (50-100) | A (50-100)
CN(C)CC#CC(C)(C)OC(=O)Nc1ccc(-c2ncn(-c3ccc(OC(F)(F)F)cc3)n2)cc1 [Compound 99] | B (Less than 80) | B (Less than 50) | B (Less than 50)
CC(OC(=O)Nc1ccc(-c2ncn(-c3ccc(OC(F)(F)F)cc3)n2)cc1)C1CC1 (stereo not drawn) [Compound 15, 4 {4-[1-(4-trifluoromethoxyphenyl)-1H-[1,2,4]triazol-3-yl]-phenyl}-carbamic acid 1-cyclopropyl-ethyl ester] | B (Less than 80) | A (50-100) | A (50-100)
C#Cc1ccc(C(C)OC(=O)Nc2ccc(-c3ncn(-c4ccc(OC(F)(F)F)cc4)n3)cc2)cc1 (stereo not drawn) [Compound 44] | B (Less than 80) | A (50-100) | A (50-100)
CC(OC(=O)Nc1ccc(-c2ncn(-c3ccc(OC(F)(F)F)cc3)n2)cc1)c1ccc2ccccc2n1 (stereo not drawn) [Compound 36] | B (Less than 80) | A (50-100) | A (50-100)
CCN(C(=O)OC(C)c1ccc(C(F)(F)F)nc1)c1ccc(-c2ncn(-c3ccc(OC(F)(F)F)cc3)n2)cc1 (stereo not drawn) [Compound 130, 1-(6-(trifluoromethyl)pyridin-3-yl)ethyl ethyl(4-(1-(4-(trifluoromethoxy)phenyl)-1H-1,2,4-triazol-3-yl)phenyl)carbamate] | B (Less than 80) | A (50-100) | A (50-100)
O=C(Nc1ccc(-c2ncn(-c3ccc(OC(F)(F)F)cc3)n2)cc1)OC1Cc2ccccc2C1 [Compound 106] | B (Less than 80) | B (Less than 50) | A (50-100)
CC(OC(=O)Nc1ccc(-c2ncn(-c3ccc(OC(F)(F)F)cc3)n2)cc1)c1ccc(Cl)cc1 (stereo not drawn) [Compound 81] | B (Less than 80) | A (50-100) | A (50-100)
CC(C)(Cc1ccccc1)OC(=O)Nc1ccc(-c2ncn(-c3ccc(OC(F)(F)F)cc3)n2)cc1 [Compound 11, {4-[1-(4-trifluoromethoxyphenyl)-1H-[1,2,4]triazol-3-yl]-phenyl}-carbamic acid 1,1-dimethyl-2-phenyl-ethyl ester] | B (Less than 80) | A (50-100) | A (50-100)
O=C(Nc1ccc(-c2ncn(-c3ccc(OC(F)(F)F)cc3)n2)cc1)OC(c1ccccc1)C(F)(F)F (stereo not drawn) [Compound 90] | B (Less than 80) | A (50-100) | A (50-100)
CC(OC(=O)Nc1ccc(-c2ncn(-c3ccc(OC(F)(F)F)cc3)n2)cc1)c1ccccc1 (stereo not drawn) [Compound 59] | B (Less than 80) | A (50-100) | A (50-100)
CCCCC(C)OC(=O)Nc1ccc(-c2ncn(-c3ccc(OC(F)(F)F)cc3)n2)cc1 (stereo not drawn) [Compound 9, {4-[1-(4-trifluoromethoxyphenyl)-1H-[1,2,4]triazol-3-yl]-phenyl}-carbamic acid 1-methyl-pentyl ester] | B (Less than 80) | A (50-100) | A (50-100)
C#CC(C)(C)OC(=O)Nc1ccc(-c2ncn(-c3ccc(C(F)(F)F)cc3)n2)cc1 [Compound 13, {4-[1-(4-trifluoromethylphenyl)-1H-[1,2,4]triazol-3-yl]-phenyl}-carbamic acid 1,1-dimethyl-prop-2-ynyl ester] | B (Less than 80) | A (50-100) | A (50-100)
C#CC(OC(=O)Nc1ccc(-c2ncn(-c3ccc(OC(F)(F)F)cc3)n2)cc1)c1ccc(Cl)nc1 (stereo not drawn) [Compound 52] | B (Less than 80) | A (50-100) | A (50-100)
N#CC(OC(=O)Nc1ccc(-c2ncn(-c3ccc(OC(F)(F)F)cc3)n2)cc1)c1ccccc1 (stereo not drawn) [Compound 112] | B (Less than 80) | A (50-100) | A (50-100)
C#CC(OC(=O)Nc1ccc(-c2ncn(-c3ccc(OC(F)(F)F)cc3)n2)cc1)c1ccccc1 (stereo not drawn) [Compound 82] | B (Less than 80) | A (50-100) | A (50-100)
CC(OC(=S)Nc1ccc(-c2ncn(-c3ccc(OC(F)(F)F)cc3)n2)cc1)c1ccc(C(F)(F)F)nc1 (stereo not drawn) [Compound 133, O-1-(6-(trifluoromethyl)pyridin-3-yl)ethyl 4-(1-(4-(trifluoromethoxy)phenyl)-1H-1,2,4-triazol-3-yl)phenylcarbamothioate] | B (Less than 80) | A (50-100) | A (50-100)
O=C(Nc1ccc(-c2ncn(-c3ccc(OC(F)(F)F)cc3)n2)cc1)Oc1ccccc1 [Compound 122] | B (Less than 80) | A (50-100) | A (50-100)
C=CC(C)(C)OC(=O)Nc1ccc(-c2ncn(-c3ccc(OC(F)(F)F)cc3)n2)cc1 [Compound 19] | B (Less than 80) | A (50-100) | A (50-100)
CC1(OC(=O)Nc2ccc(-c3ncn(-c4ccc(OC(F)(F)F)cc4)n3)cc2)Cc2ccccc2C1 [Compound 108] | B (Less than 80) | B (Less than 50) | B (Less than 50)
Cc1cccc(C(C)OC(=O)Nc2ccc(-c3ncn(-c4ccc(OC(F)(F)F)cc4)n3)cc2)n1 (stereo not drawn) [Compound 37] | B (Less than 80) | A (50-100) | A (50-100)
CC(C)(OC(=O)Nc1ccc(-c2ncn(-c3ccc(OC(F)(F)F)cc3)n2)cc1)C(F)(F)F [Compound 8] | B (Less than 80) | A (50-100) | A (50-100)
C#CC(OC(=O)Nc1ccc(-c2ncn(-c3ccc(C(F)(F)F)cc3)n2)cc1)c1ccc(C(F)(F)F)cc1 (stereo not drawn) [Compound 29] | B (Less than 80) | A (50-100) | A (50-100)
CC(OC(=O)Nc1ccc(-c2ncn(-c3ccc(OC(F)(F)F)cc3)n2)cc1)C(C)(C)C (stereo not drawn) [Compound 103] | B (Less than 80) | A (50-100) | B (Less than 50)
